# Measurements from patent publication US20220273628A1, “EFFECTS OF LYSERGIC ACID DIETHYLAMIDE (LSD) AND OF LSD ANALOGS TO ASSIST PSY[…] G[…] DISORDER OR OTHER ANXIETY NOT RELATED TO LIFE-T[…]” (Universitätsspital Basel, priority 2021, published 2022).
# Assays:
# [1] = 200 μg oral, cited from earlier work
# [2] = test system: patients with anxiety disorder without somatic illness; experiment: Randomized, double-blind, placebo-controlled phase II cross-over study of LSD: ratings of anxiety, depression and psychological distress; assay type: in vivo, human
# Description: Specifically, in patients with generalized anxiety disorder, LSD or placebo was administered in double-blind manner in two sessions separated by 6 weeks and anxiety, depression and psychological distress were assessed between sessions, 2, 8, and 16 weeks after the second session. Then patients who received LSD crossed over to placebo and vice versa.
# The examples study used a double-blind cross-over design with two treatment sequences each lasting 24 weeks (LSD vs. placebo-assisted psychotherapy) and separated by a […] between-sequence period. Order was counter-balanced and random. Each participant served as its own control over the 52-weeks total study duration. Treatment effects are also compared between subjects for the first 24 week study period before the cross-over.
# Each of the four LSD/Placebo sessions lasted 12 hours from 8 AM to 8 PM. Sessions took place in a quiet room at the Ambulatory Study Center of the University Hospital Basel (Basel center) or in the private practice office of Dr. P. Gasser (Solothurn center). At the beginning of the session, current mood and mental state were discussed and a urine drug screen was taken and any AEs since the last visit were recorded. Any open questions or concerns were addressed by the investigator. The participants were advised to lie in a bed or sit comfortably on a chair. Other than going to the bathroom, the participants remained in the treatment room for the entire 12-hour experimental session and were supervised constantly up to 8-12 hours after LSD/placebo administration depending on the participant's response and as needed. The subjective effects of LSD at the dose used in this study were expected to last 8-12 hours (Gasser et al., 2014; Holze et al., 2021; Schmid et al., 2015). […] During the LSD/placebo effect, the participants were instructed to focus their awareness inward. Subjects were encouraged to wear eye shades during the first hours (or the light was dimmed) as well as to listen to music and discussions/talking much with the investigator were discouraged. Subjects were allowed to remain mostly undisturbed with brief physical contacts every two hours when heart rate and blood pressure were measured. At the end of the sessions, 10-12 hours after LSD/placebo administration, the acute subjective peak effects were retrospectively rated by the participants using the 5D-ASC, SCQ, AMRS, and VASs and the experience was discussed. Ten-twelve hours after LSD/placebo administration the participants were allowed to return to their home with company and supervision provided by the partner, a relative, or a friend. If supervision was not available or if effects persisted, the night was spent at the study site.
# The STAI is a widely used self-report instrument for assessing anxiety in adults. It includes separate measures of state and trait anxiety (Spielberger et al., 1983). The STAI evaluates the essential qualities of feelings of apprehension, tension, nervousness, and worry. The STAI differentiates between the temporary condition of state anxiety and the more general and long-standing quality of trait anxiety. The STAI state anxiety subscale asks for feelings at the moment of filling out the questionnaire, and the STAI trait anxiety subscale ask subjects to indicate how they generally view themselves. For both subscales, scores from 20 to 39 represent mild anxiety, and scores from 40 to 59 indicated moderate anxiety, whereas scores from 60 to 80 indicated severe anxiety. Both the state and trait STAI are commonly used as outcome measures in studies in patients with anxiety disorder (Fisher et al., 1999; Laakmann et al., 1998). A global STAI score can be derived by adding up the state and trait anxiety scale scores (range: 40-160 points). Similar to the pilot study both STAI scale scores were used to determine study inclusion at the screening visit (Gasser et al., 2014; Gasser et al., 2015). […]
# healthy participants = settings: in vivo; cited from earlier work
# [3] = test system: dopaminergic D1-3 receptors; settings: cited from earlier work
# adrenergic α1 receptors = settings: cited from earlier work
# [4] = test system: patients with life-threatening illness and related anxiety; settings: cited from earlier work
# [5] = drinking solution (water/alcohol) in dark glass vials; cited from earlier work
# [6] = between-subjects, after the first session, p=0.04
# [7] = between-subjects, week 10 (2 weeks after the second dose), p=0.002
# [8] = between-subjects, weeks 16 and 24, did not reach statistical significance
# [9] = within-subjects, 2 weeks after the second administration, p=0.003
# [10] = within-subjects, after two LSD sessions
smiles,measurement,setting,value
"CCN(CC)C(=O)[C@@H]1C=C2c3cccc4[nH]cc(c34)C[C@H]2N(C)C1 [LSD, lysergic acid diethylamide]",time to maximal concentrations of LSD,[1]; 16 healthy subjects,1.5 h
same,half-life,[1]; first-order kinetics up to 12 hours,3.6 h
same,"STAI-S, STAI-T, STAI-G, HDRS, BDI and SCL-90 Global scores compared with baseline","[2]; LSD condition only, 19 patients, 2 weeks after the second treatment session, p=0.006, 0.01, 0.03, 0.02, 0.03",reduced scores on all outcome measures significantly
same,STAI-S ratings compared with placebo,"[2]; between-subjects, first period, week 10 (2 weeks after the second dose), 200 μg per os, p=0.008",significantly reduced
same,STAI-S ratings compared with placebo,"[2]; between-subjects, after the first session, p=0.03",significantly reduced
same,HDRS scores compared with placebo,[2]; [6],already reduced scores
same,STAI-G ratings compared with placebo,[2]; [6],significantly reduced
same,STAI-T ratings compared with placebo,"[2]; between-subjects, week 10 (2 weeks after the second dose), p=0.001",significantly reduced
same,HDRS scores compared with placebo,[2]; [7],significantly reduced
same,STAI-G ratings compared with placebo,[2]; [7],significantly reduced
same,SCL-90 Global scores compared with placebo,"[2]; between-subjects, week 10, p=0.004",significantly reduced
same,BDI scores compared with placebo,"[2]; between-subjects, week 10, p=0.02",significantly reduced
same,SCL-90 Global compared with placebo,"[2]; between-subjects, week 16 and week 24, did not reach statistical significance",remained reduced
same,STAI-S ratings compared with placebo,"[2]; between-subjects, weeks 16 and 24 (8 and 16 weeks after the second dose), did not reach statistical significance",continued to be reduced
same,STAI-G ratings compared with placebo,[2]; [8],continued to be reduced
same,STAI-T ratings compared with placebo,[2]; [8],continued to be reduced
same,"STAI-S symptom score, difference from baseline, compared with placebo","[2]; within-subjects (19 patients), 2 weeks after the second administration, p=0.01",significantly reduced
same,"BDI symptom score, difference from baseline, compared with placebo","[2]; within-subjects, 2 weeks after the second administration, p=0.002",significantly reduced
same,"STAI-G symptom score, difference from baseline, compared with placebo",[2]; [9],significantly reduced
same,"STAI-T symptom score, difference from baseline, compared with placebo",[2]; [9],significantly reduced
same,"SCL-90 Global symptom score, difference from baseline, compared with placebo","[2]; within-subjects, 2 weeks after the second administration, p=0.004",significantly reduced
same,"HDRS symptom score, difference from baseline, compared with placebo","[2]; within-subjects, 2 weeks after the second administration, p=0.03",significantly reduced
same,emotional empathy and prosociality,healthy participants,enhancing
same,recognition of fearful and sad faces,healthy participants,decreasing
same,activity at dopaminergic D1-3 receptors,[3],stimulates
same,activity at adrenergic α1 receptors,adrenergic α1 receptors,stimulates
same,STAI anxiety compared with baseline,"[4]; 2 months after the two LSD sessions, 200 μg per os",significant decrease
same,"mild affect lability, share of LSD sessions",[4]; in vivo,14%
same,"mild gait disturbance, share of LSD sessions",[4]; in vivo,32%
same,"mild-to-moderate emotional distress, share of LSD sessions",[4]; in vivo,36%
same,"moderate anxiety, share of LSD sessions",[4]; in vivo,23%
same,"moderately feeling cold, share of LSD sessions",[4]; in vivo,45%
same,number of migraine attacks,[4]; two migraine patients,markedly reduced
same,STAI state anxiety score after LSD (mean±SD),[4]; [10],41.5±9.7
same,STAI trait anxiety score after LSD (mean±SD),[4]; [10],45.3±10.3
same,STAI state anxiety score before LSD (mean±SD),"[4]; within-subjects, baseline",53.1±13.5
same,STAI trait anxiety score before LSD (mean±SD),"[4]; within-subjects, baseline",53.3±11.3
same,decrease in STAI trait anxiety score (mean±SD),[4]; within-subjects,8.0±7.7 points
same,reduction in STAI state anxiety score (mean±SD),[4]; within-subjects,11.6±9.5 points
same,content-uniformity and stability of the formulation,[5],stability of the formulation throughout the entire study period was documented
